Source: US11400059B2, “Treatment of pain and/or pain related symptoms associated with dysmenorrhea” (ALYRA BIOTECH PTY LTD, priority 2017, dated 2022)

How the values were obtained:
Format in all cases: cell-based
hTLR7 = biological target: T1, hTLR7 (Homo sapiens, UniProt Q9NYK1); experiment: Human TLR/NLR agonist screening, NF-κB SEAP reporter in HEK293 cells; details: agonist mode, Control+ = CL307 1 μg/mL
T1 construct: expressed in transfected cells; host or cells: HEK293
T1 sequence (Q9NYK1 27-1049): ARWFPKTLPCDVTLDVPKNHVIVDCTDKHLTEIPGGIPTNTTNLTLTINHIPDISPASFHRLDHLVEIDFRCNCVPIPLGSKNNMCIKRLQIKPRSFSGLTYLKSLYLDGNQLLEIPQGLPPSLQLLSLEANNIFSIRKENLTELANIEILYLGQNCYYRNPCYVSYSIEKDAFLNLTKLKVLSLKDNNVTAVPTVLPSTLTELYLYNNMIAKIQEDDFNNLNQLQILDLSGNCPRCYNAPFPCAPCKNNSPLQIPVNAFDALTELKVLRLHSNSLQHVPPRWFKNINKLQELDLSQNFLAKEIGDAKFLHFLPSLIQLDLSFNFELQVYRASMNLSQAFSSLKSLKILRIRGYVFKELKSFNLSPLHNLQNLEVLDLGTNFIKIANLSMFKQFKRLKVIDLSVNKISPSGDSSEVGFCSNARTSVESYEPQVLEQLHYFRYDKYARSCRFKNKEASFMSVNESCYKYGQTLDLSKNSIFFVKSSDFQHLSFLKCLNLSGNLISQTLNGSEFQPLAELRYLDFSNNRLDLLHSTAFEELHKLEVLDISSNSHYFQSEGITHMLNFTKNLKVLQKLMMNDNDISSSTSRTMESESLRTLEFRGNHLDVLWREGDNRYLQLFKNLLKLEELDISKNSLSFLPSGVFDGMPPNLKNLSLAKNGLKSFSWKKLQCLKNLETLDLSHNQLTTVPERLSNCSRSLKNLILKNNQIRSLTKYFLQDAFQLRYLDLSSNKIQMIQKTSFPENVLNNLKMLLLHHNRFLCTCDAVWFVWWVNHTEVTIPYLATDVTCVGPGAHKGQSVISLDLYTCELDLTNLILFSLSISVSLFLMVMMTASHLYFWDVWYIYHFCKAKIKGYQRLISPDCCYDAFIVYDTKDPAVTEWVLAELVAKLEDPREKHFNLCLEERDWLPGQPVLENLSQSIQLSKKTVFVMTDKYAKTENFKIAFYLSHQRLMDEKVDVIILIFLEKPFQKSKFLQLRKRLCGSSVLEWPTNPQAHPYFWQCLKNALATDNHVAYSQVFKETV
Method: (§1) Toll-Like Receptor (TLR), NOD-Like Receptor (NLR) and C-Type Lectin Receptor (CLR) stimulation were tested by assessing NF-κB activation in HEK293 cells expressing a given TLR, NLR or CLR. The activity of the test articles was tested at one concentration and compared to control ligands. These steps were performed in triplicate.
hTLR7: CL307 at 1 μg/mL Antagonist: 10 ng/mL.
(§2) In a 96-well plate (200 μL total volume) containing the appropriate cells (50,000-75,000 cells/well), 20 μL of the test article or the positive control ligand was added to the wells. For the antagonist assay, the test article was incubated with the cells, at 37° C. with 5% CO2, for 30 minutes prior to the addition of the positive control ligand to the wells. The media added to the wells was designed for the detection of NF-κB induced SEAP expression. After a 16-24 hr incubation the optical density (OD) was read at 650 nm on a Molecular Devices SpectraMax 340PC absorbance detector.
The fold induction (ratio of average induced value to average non-induced value) results were as follows: […]

hDectin-1a = biological target: T2, hDectin-1a (Homo sapiens, UniProt Q9BXN2); experiment: Human CLR agonist screening, NF-κB SEAP reporter in HEK293 cells; details: agonist mode, Curdlan 100 μg/mL
T2 construct: expressed in transfected cells; host or cells: HEK293
Method: as §1
(§3) hDectin-1a and hDectin-1b: WGP Soluble (0-glucan from S. cerevisiae) at 10 ng/mL Antagonist: 5 ng/mL. Curdlan at 100 μg/mL. Antagonist: 100 μg/mL. Zymosan Depleted (hot alkali treated S. cerevisiae) at 5 μg/mL Antagonist: 3 μg/mL.
as §2
(§4) Fold Induction (Ratio of Average Induced Value to Average Non-Induced Value): […]

hDectin-1b = biological target: T3, hDectin-1b (Homo sapiens, UniProt Q9BXN2); experiment: as above; details: agonist mode, Curdlan 100 μg/mL
T3 construct: expressed in transfected cells; host or cells: HEK293
Method: as §1, §3, §2, §4

T2 sequence (Q9BXN2 whole entry): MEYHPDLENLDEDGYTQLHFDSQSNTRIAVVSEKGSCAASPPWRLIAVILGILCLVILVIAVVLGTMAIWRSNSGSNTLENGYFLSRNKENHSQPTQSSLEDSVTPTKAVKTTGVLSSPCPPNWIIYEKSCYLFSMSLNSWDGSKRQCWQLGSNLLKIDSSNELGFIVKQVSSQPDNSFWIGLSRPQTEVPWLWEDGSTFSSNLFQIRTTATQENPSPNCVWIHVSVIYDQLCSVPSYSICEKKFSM
T3 sequence (Q9BXN2 1-201 isoform Q9BXN2-2): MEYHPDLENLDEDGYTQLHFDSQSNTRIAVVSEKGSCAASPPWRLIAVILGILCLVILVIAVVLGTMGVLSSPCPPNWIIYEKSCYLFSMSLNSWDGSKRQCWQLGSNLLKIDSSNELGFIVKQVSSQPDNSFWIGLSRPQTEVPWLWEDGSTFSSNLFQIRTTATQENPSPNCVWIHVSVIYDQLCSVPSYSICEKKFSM

Fold induction (ratio of average induced value to average non-induced value) (hTLR7) | Fold induction (ratio of average induced value to average non-induced value) (hDectin-1a) | Fold induction (ratio of average induced value to average non-induced value) (hDectin-1b) | Compound
34 |  |  | CCCCNc1nc(N)c2[nH]c(=O)n(Cc3ccc(C(=O)NCC(=O)NCCCNCCCCNCCCN)cc3)c2n1 [CL307]
 | 6 | 8 | Curdlan
